Assays:
[1] = target: T1, recombinant human GABAAR (α1β2γ2L) (Homo sapiens, UniProt P14867+P18507+P47870); settings: Xenopus laevis oocytes, cited from earlier work
T1 construct: host or cells: Xenopus laevis oocytes

primary cortical neurons = experiment: NMDA-induced excitatory injury test on primary cortical neurons (Luminescent Cell Viability Assay); format: cell-based, rat
Method: Pregnant SD rats at 18 days of pregnancy were sacrificed by cervical dislocation. The uterus of rats was dissected and the brain of E18 fetal rats was taken out. The cerebral cortex tissue of the fetal rats was separated into ice-cold DMEM. The meninges and blood vessels on the cortical tissue were removed under a dissecting microscope. The cortical tissue was transferred into ice-cold DMEM, cut into pieces (about 1 mm^3), and digested with trypsin at 37° C. for 10 min. The digestion was stopped with FBS. The obtained cells were blown gently with a Pasteur pipette and passed through a 200-mesh sieve. The filtered cell suspension was transferred to a 15 mL centrifuge tube, and centrifuged at 1000 rpm for 5 min. The supernatant was discarded. Then the cell mass at the bottom of the centrifuge tube was blown gently with 37° C.-prewarmed complete medium (Neurobasal+B27+GlutaMax+1% P/S). The cells were counted using a hemocytometer, diluted to 5×10^5 cells/mL with complete medium, and seeded in a 96-well plate coated with PDL (100 μL/well). Half of the cell culture medium was replaced with complete medium the next day. […] After the inducing buffer was discarded, the cells were washed once with a Locke's buffer containing 1 mM MgCl2, and recovered to be incubated for 4 h by replacing with a complete medium (100 μL/well). The viability of the primary neuron cells was determined by Luminescent Cell Viability Assay kit. According to the instruction, reagents were added at 100 μL/well, and shaking was performed for 10 min. […] Calculation formula: relative neuron activity V (%)=(LUM-LUMbackground)/(LUMnormal control group-LUMbackground group)×100%. LUMbackground was the background reading of the Luminescent Cell Viability Assay reagent added to the cell-free complete medium well. […] Fitting of EC50 of compounds: Log[compound concentration] was used as the abscissa and the relative inhibition rate was used as the ordinate. Log(inhibitor) vs. response-variable slope (four parameters) curve was fitted by Prism8 (GraphPad) to obtain the IC50 of the compounds. […] After the inducing buffer was discarded, the cells were washed once with a Locke's buffer containing 1 mM MgCl2, and recovered to be incubated for 4 h by replacing with a complete medium (100 μL/well). […] After the inducing buffer was discarded, the cells were washed once with a Locke's buffer containing 1 mM MgCl2, and recovered to be incubated for 4 h by replacing with a complete medium (100 μL/well). […] After the inducing buffer was discarded, the cells were washed once with a Locke's buffer containing 1 mM MgCl2, and recovered to be incubated for 4 h by replacing with a complete medium (100 μL/well). […] After the inducing buffer was discarded, the cells were washed once with a Locke's buffer containing 1 mM MgCl2, and recovered to be incubated for 4 h by replacing with a complete medium (100 μL/well).

MCAO rats = experiment: Rat focal cerebral ischemia-reperfusion model (MCAO), neurological deficit score and cerebral infarction area; format: in vivo; settings: Example 6
Text: The rat focal cerebral ischemia-reperfusion model was established by internal carotid artery suture method. The limbs (hind limbs above the knee joint and forelimbs above the wrist joint) and head of an anesthetized rat were tightened with rubber bands. The animal was fixed on an operating table in supine position, and was shaved with an animal shaver from the head to the chest, and the skin was disinfected with alcohol. The neck of the rat was cut at the midline, and the subcutaneous tissue was bluntly separated. The thin layer of fascia on the surface of the anterior triangle of the neck was separated, the lower side-lower edge of the clavicular hyoid muscle was pulled up, and the longitudinally pulsating artery parallel to this muscle can be seen. The arterial shell was opened, and the bifurcation of the right carotid artery was exposed. The right common carotid artery, external carotid artery and internal carotid artery were separated. The vagus nerve was gently stripped, and the external carotid artery was ligated and cut. The proximal end of the common carotid artery was clamped. An incision was made at the distal end from the ligature of the external carotid artery, and was inserted with a suture line, which was passed through the bifurcation of the common carotid artery into the internal carotid artery, and then was inserted slowly until reaching slight resistance (approximately 20 mm from the bifurcation), so as to block all blood supply to the middle cerebral artery. The suture line was slightly fixed below the incision of the external carotid artery with silk thread. The silk thread clamping the proximal end of the common carotid artery was loosened. A gauze soaked in sterile saline was covered on the wound, and the rat was placed on a heat preservation pad to keep warm. 2.0 h after cerebral ischemia on the right side, the suture line was pulled out gently to restore the blood supply for reperfusion. The external carotid artery was ligated with silk thread fixing the suture line. The skin was stitched, and disinfected. The rats were placed in clean feed, and their general condition and respiration were observed until they woke up from anesthesia. The rats were provided with food and water, and commonly reared.
After the cerebral ischemia model was established, the animals were assigned to each group in a single-blind manner with equal probability. After reperfusion, the animals were immediately administered intravenously with the drugs once. The animals in the model group were administered with an equal volume of normal saline. Neurological deficit symptoms were evaluated 24 hours after cerebral ischemia, the animals were sacrificed, and their brains were taken out, stained, and photographed for determining the area of cerebral infarction.
Neurological deficit symptoms were evaluated using the modified Bederson 5-point scale. The neurological deficit symptoms of rats after cerebral ischemia were evaluated by a single-blind method. […] After scoring, the scoring results of various markers were submitted to the designer, who unblinded and obtained the scoring of each animal in each experimental group.
The degree of cerebral infarction was determined by TTC staining. After the evaluation of the symptoms of neurological deficits was completed, the animals were sacrificed with CO2. The brain was taken out by cutting off head. The olfactory bulb, cerebellum and lower brainstem were removed. The blood on the surface of the brain was washed with normal saline, and the residual water on the surface was removed. The brain was placed at −20° C. for 20 min, then taken out, immediately cut to a coronal section vertically downward at the crossing plane of the line of sight, and sliced backward every 2 mm. The brain slices were incubated in 1% TTC staining solution (at 37° C. for 30 min). The normal brain tissue was stained into dark red, and the ischemic brain tissue was stained into pale white.

[2] = target: N-methyl-D-aspartate (NMDA) receptors; settings: read-out: IC50, noncompetitive block of NMDA receptors; cited from earlier work
kainic acid receptors = settings: read-out: IC50, block of kainic acid receptors; cited from earlier work

T1 sequence (P14867 28-456): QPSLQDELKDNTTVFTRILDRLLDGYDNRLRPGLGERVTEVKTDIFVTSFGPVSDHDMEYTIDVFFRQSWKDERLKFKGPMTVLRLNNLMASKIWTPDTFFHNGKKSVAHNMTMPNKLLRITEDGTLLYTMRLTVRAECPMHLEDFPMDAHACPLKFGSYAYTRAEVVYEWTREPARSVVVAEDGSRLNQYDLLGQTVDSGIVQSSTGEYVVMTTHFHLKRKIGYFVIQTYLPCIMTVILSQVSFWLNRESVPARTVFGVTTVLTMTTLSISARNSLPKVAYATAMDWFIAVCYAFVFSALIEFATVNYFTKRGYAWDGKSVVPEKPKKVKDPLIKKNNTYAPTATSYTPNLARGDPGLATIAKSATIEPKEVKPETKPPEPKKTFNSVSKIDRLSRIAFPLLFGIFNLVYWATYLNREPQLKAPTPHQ
T1 sequence (P47870 25-512 limits assumed): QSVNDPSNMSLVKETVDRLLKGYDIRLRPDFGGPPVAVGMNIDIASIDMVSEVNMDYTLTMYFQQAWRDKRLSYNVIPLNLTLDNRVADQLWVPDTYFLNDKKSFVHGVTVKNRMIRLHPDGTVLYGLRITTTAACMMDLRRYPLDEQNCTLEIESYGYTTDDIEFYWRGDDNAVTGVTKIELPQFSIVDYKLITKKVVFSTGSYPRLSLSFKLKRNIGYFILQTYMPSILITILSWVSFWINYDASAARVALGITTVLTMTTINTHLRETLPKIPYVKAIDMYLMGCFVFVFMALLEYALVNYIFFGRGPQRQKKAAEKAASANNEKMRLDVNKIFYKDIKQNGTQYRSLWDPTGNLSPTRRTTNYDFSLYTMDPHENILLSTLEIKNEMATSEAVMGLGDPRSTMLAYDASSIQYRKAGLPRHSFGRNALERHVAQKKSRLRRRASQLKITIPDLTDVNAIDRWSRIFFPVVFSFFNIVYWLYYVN
T1 sequence (P18507 40-475): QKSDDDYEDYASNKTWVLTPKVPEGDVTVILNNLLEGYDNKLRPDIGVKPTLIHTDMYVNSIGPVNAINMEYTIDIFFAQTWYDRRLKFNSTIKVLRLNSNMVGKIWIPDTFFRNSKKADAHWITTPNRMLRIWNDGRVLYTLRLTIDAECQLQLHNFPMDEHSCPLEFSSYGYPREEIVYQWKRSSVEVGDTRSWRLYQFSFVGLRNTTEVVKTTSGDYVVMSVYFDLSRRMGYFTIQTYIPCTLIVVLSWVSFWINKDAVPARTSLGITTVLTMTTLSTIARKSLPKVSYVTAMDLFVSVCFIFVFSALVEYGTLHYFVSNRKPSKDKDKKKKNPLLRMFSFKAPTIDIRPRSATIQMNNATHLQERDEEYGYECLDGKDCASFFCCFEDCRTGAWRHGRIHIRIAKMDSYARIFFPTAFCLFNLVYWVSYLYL

SMILES: CC1(C)[C@@H]2CC[C@@]1(C)[C@@H](O)C2 [(+)-2-Borneol]
- EC50 ([1]; low concentration of GABA, read-out: EC50, enhancement of GABAAR function): 248 µM
- enhancement of function of GABAAR induced by low concentration of GABA [1]: more than 10 times
- viability of neurons with excitatory injury (primary cortical neurons; Example 1, 0.41-3.7 μM): concentration-dependently increased
- viability of neurons with excitatory injury (primary cortical neurons; Example 1, 10-100 μM): tended to decrease
- viability of neurons with NMDA-induced excitatory injury (primary cortical neurons; Example 2, alone at 3.7 μM): significantly improve
- Fa, protecting neurons from excitatory injury (primary cortical neurons; Example 3, (+)-2-borneol 0.5 μM): 0.014
- Fa, protecting neurons from excitatory injury (primary cortical neurons; Example 3, (+)-2-borneol 1 μM): 0.022
- Fa, protecting neurons from excitatory injury (primary cortical neurons; Example 3, (+)-2-borneol 2 μM): 0.152
- Fa, protecting neurons from excitatory injury (primary cortical neurons; Example 3, (+)-2-borneol 4 μM): 0.22
- Fa, protecting neurons from excitatory injury (primary cortical neurons; Example 3, (+)-2-borneol 8 μM): 0.231
- viability of neurons with injury induced by NMDA (primary cortical neurons; Example 3, riluzole 10-160 μM, (+)-2-borneol 0.5-8 μM, compositions 20:1): concentration-dependently increase
- Fa, protecting neurons from excitatory injury (primary cortical neurons; Example 4, (+)-2-borneol 0.5 μM): 0.042
- Fa, protecting neurons from excitatory injury (primary cortical neurons; Example 4, (+)-2-borneol 1 μM): 0.069
- Fa, protecting neurons from excitatory injury (primary cortical neurons; Example 4, (+)-2-borneol 2 μM): 0.086
- Fa, protecting neurons from excitatory injury (primary cortical neurons; Example 4, (+)-2-borneol 4 μM): 0.209
- Fa, protecting neurons from excitatory injury (primary cortical neurons; Example 4, (+)-2-borneol 8 μM): 0.205
- viability of neurons with injury induced by NMDA (primary cortical neurons; Example 4, riluzole 2.5-40 μM, (+)-2-borneol 0.5-8 μM, compositions 5:1): concentration-dependently increase
- Fa, protecting neurons from excitatory injury (primary cortical neurons; Example 5, (+)-2-borneol 0.5 μM): 0.042
- Fa, protecting neurons from excitatory injury (primary cortical neurons; Example 5, (+)-2-borneol 1 μM): 0.077
- Fa, protecting neurons from excitatory injury (primary cortical neurons; Example 5, (+)-2-borneol 2 μM): 0.128
- Fa, protecting neurons from excitatory injury (primary cortical neurons; Example 5, (+)-2-borneol 4 μM): 0.205
- Fa, protecting neurons from excitatory injury (primary cortical neurons; Example 5, (+)-2-borneol 8 μM): 0.202
- viability of neurons with injury induced by NMDA / protective effect (primary cortical neurons; Example 5, riluzole 0.5-8 μM, (+)-2-borneol 0.5-8 μM, compositions 1:1): concentration-dependently increase
- Emax (primary cortical neurons; Rattus norvegicus, Primary cortical neuron, Example 1, concentration-inhibition rate curve, read-out: Emax (relative inhibition rate)): 15%
- neurological deficit score vs MCAO model group (MCAO rats; 1 mg/kg i.v. once after reperfusion, 24 hours): significantly reduced
- cerebral infarction area vs MCAO model group (MCAO rats; 0.5 and 1 mg/kg i.v. once after reperfusion, 24 hours): dose-dependently, significantly reduced
- Fa, reducing the area of cerebral infarction in MCAO rats (MCAO rats; (+)-2-borneol 0.5 mg/kg): 0.157
- Fa, reducing the area of cerebral infarction in MCAO rats (MCAO rats; (+)-2-borneol 1 mg/kg): 0.256
- neurological deficit score of MCAO rats, dose dependence (MCAO rats; i.v. once after reperfusion, evaluated 24 hours after cerebral ischemia): dose-dependently reduce

SMILES: Nc1nc2ccc(OC(F)(F)F)cc2s1 [Riluzole, 2-Amino-6-trifluoromethoxybenzothiazole]
- IC50 [2]: 18 µM
- IC50 (kainic acid receptors): 167 µM
- neurological deficit score vs MCAO model group (MCAO rats; 8 mg/kg i.v. once after reperfusion, 24 hours): significantly reduced

From US20240165087A1, “APPLICATION OF RILUZOLE- AND BORNEOL-CONTAINING COMPOSITION IN PREPARATION OF MEDICATION FOR TREATING CEREBROVASCULAR DISEASES” (NEURODAWN PHARMACEUTICAL CO., LTD., priority 2021, published 2024)
